In ChEMBL document CHEMBL1145731, “A green fluorescent chemosensor for amino acids provides a versatile high-throughput screening (HTS) assay for proteases” (Bioorg Med Chem Lett, 2003) one finds EC50 data, which are given here for 10 molecules.

This test in a line: Concentration required for obtaining 50% of the fluorescence intensity of copper-free calcein 1, in bovine serum albumin.

Regarding `CSCC[C@H](N)C(=O)O` [METHIONINE], the EC50 was 800 µM.
With `CC(C)CC(N)C(N)=O` (stereo not given) [LEUCINAMIDE], the EC50 is 12000 µM.
Next, `CC(C)[C@H](N)C(=O)O` [VALINE]: 1500 µM.
Next, `N[C@@H](Cc1c[nH]cn1)C(=O)O` [HISTIDINE]: 10 µM.
Next, `C[C@H](N)C(=O)O` [ALANINE]: around 800 µM; `N[C@@H](CS)C(=O)O` [CYSTEINE]: 20 µM; `O=C(O)CN(CCN(CC(=O)O)CC(=O)O)CC(=O)O` [EDETIC ACID]: 10 µM.
In the case of `N[C@@H](CO)C(=O)O` [SERINE], the EC50 was 700 µM.
In the case of `NCC(=O)O` [GLYCINE], the concentration giving a half-maximal response (EC50) is 500 µM.
Regarding `CC(C)C[C@H](N)C(=O)O` [LEUCINE], the EC50 is 5000 µM.

One may read the EC50 as the midpoint of the concentration-response curve.
